Here are results for one molecule from paper PMC10812665, “Definition of the Neurotoxicity-Associated Metabolic Signature Triggered by Berberine and Other Respiratory Chain Inhibitors” (Antioxidants, 2023).

For this experiment, the target named is T1, purified pig brain tubulin (Sus scrofa, UniProt P02550+P02554).
T1 construct: native alpha/beta-tubulin purified from pig brain
The experiment in a line: tubulin polymerization, absorbance […] nm. It is filed as biochemical.

T1 sequence (P02554 whole entry): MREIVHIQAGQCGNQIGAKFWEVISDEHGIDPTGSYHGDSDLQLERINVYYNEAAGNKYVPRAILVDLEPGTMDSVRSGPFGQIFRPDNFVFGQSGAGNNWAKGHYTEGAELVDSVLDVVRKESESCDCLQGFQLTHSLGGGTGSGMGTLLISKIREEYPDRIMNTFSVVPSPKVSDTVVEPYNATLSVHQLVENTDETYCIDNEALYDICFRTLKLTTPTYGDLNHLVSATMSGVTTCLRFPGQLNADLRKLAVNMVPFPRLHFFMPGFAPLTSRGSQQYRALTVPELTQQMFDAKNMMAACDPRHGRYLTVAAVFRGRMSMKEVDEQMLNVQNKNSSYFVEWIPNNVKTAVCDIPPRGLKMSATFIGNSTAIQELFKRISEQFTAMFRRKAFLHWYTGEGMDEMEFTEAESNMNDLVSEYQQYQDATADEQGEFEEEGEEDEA
T1 sequence (P02550 whole entry): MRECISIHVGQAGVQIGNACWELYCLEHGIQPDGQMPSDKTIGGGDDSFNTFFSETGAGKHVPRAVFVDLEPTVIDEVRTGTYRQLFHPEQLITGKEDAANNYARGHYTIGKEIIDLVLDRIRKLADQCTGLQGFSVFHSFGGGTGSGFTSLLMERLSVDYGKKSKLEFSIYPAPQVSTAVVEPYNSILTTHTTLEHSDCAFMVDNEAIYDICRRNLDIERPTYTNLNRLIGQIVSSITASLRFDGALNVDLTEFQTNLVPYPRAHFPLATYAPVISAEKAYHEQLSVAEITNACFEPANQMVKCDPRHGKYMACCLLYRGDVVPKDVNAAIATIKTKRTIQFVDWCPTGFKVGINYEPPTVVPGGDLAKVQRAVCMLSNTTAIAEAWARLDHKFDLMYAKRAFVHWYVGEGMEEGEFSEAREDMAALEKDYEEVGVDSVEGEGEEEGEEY

The molecule `C=C(C)[C@H]1Cc2c(ccc3c2O[C@@H]2COc4cc(OC)c(OC)cc4[C@@H]2C3=O)O1` [Rot, rotenone] returned an EC50 of 640 nM.
